Square brackets hold non-standard residues; d marks the D form. Ends that are not written are not given here. Lys(Me3) = C[N+](C)(C)CCCC[C@H](N)C(=O)O
Molecular target: T1, KDM4D (Homo sapiens, UniProt Q6B0I6)
T1 construct: KDM4AM1-L359,[38]; KDM4DM1-L359,[39]; KDM4EM1-R336,[30]; His6 (N); made in house; host or cells: Escherichia coli
T1 sequence (Q6B0I6 1-359): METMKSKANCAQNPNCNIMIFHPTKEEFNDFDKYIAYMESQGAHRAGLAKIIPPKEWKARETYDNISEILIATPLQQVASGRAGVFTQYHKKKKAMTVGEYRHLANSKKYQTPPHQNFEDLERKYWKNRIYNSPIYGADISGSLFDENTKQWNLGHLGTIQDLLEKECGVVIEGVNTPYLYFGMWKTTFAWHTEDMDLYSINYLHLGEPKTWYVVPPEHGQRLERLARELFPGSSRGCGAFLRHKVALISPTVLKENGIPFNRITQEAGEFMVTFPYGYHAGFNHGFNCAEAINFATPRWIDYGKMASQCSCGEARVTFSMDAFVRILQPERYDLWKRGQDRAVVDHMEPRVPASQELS
Assay: time-course 1H NMR assay of succinate production, KDM4D
Assay type: biochemical
Details: KDM4D 10 μM, 2OG 400 μM, peptide 400 μM; for oxidation of H1 peptide by KDM4D (succinate production arising from 2OG oxidation): 1H NMR 700 MHz, 298 K, Fe(II) 100 μM, L-ascorbate 1 mM, 50 mM Tris-d11 pH 7.5, 60 min, two independent experiments; for succinate production rate with KDM4D, relative: 1H NMR time course, pH 7.5, compared to H1.4K25me3
Text: Fig. 6 Time-course ^1H NMR analysis for reactions of KDM4D with H1 peptides. (A) KDM4D-catalysed succinate production for H1.3K24me3 (turquoise), H1.4K25me3 (raspberry), and H1.5K26me3 (khaki) compared to that without peptides (black). (B) KDM4D in the presence of 2OG without the H1 peptide; note that only low-level succinate production is observed. (C) Production of succinate measured for KDM4D/H1.3K24me3 over time, as evidenced by increasing integration of the singlet at δ^1H 2.31 ppm (corresponding to the succinate methylenes). Assay conditions are described in the Experimental details section.
NMR spectra were acquired at 298 K using a Bruker AVIII 700 MHz NMR spectrometer equipped with a TCI helium-cooled CryoProbe. Data were processed using TopSpin v.3.6.2 software. Signal intensities were calibrated relative to TSP, δH 0 ppm, and the chemical shifts (ppm) are relative to the resonance of the solvent, δH 4.7 ppm. Assay mixtures contained KDM4D (10 μM), 2OG (400 μM), H1_20–34 peptide (400 μM), Fe(II) ammonium sulfate (100 μM), L-ascorbate (1 mM) and internal standard, 3-(trimethylsilyl)-2,2,3,3-tetradeuteropropionic acid (TSP, 800 μM) in 50 mM Tris-d11, pH 7.5. Aqueous stocks of 2OG, Fe(II) ammonium sulfate and L-ascorbate were prepared fresh on the day of testing. Samples were transferred to 3-mm diameter MATCH NMR tubes (CortecNet) and monitored by ^1H excitation sculpting with baseline optimisation using 16 transients. The time lapse between sample mixing and data acquisition was 6–7 min. The spectra were acquired every 2 min over 60 min. Starting material and product concentrations were quantified relative to the TSP concentration. Samples from two independent experiments were analysed by NMR spectroscopy.

For “KKKAR[Lys(Me3)]SAGAAKRKA [Peptide H1.4K25me3, 15-mer linker histone H1.4 residues 20-34 peptide, tri-methylated K25]”, the “oxidation of H1 peptide by KDM4D (succinate production arising from 2OG oxidation)” value (from here on “oxidation of H1 peptide by KDM4D”) was “clear evidence for oxidation”.

“KKKATK[Lys(Me3)]AAGAGAAK [Peptide H1.5K26me3, 15-mer linker histone H1.5 residues 20-34 peptide, tri-methylated K26]” was tested, and the “oxidation of H1 peptide by KDM4D” value was “clear evidence for oxidation” and the “succinate production rate with KDM4D, relative” value was “slightly slower succinate production compared to H1.4K25me3”.

With “KKKA[Lys(Me3)]KAGATAGKRK [Peptide H1.3K24me3, 15-mer linker histone H1.3 residues 20-34 peptide, tri-methylated K24]” the “oxidation of H1 peptide by KDM4D” value was “clear evidence for oxidation” and the “succinate production rate with KDM4D, relative” value was “slightly slower succinate production compared to H1.4K25me3”.

From article PMC12363342, “Investigating the N-terminal linker histone H1 subtypes as substrates for JmjC lysine demethylases” (RSC Chemical Biology, 2025)
